System: 521955-158-R2-J5-PDC complex spheroid growth, % test/control
Experiment: Anticancer human tumor 521955-158-R2-J5-PDC patient-derived pancreatic carcinoma cell line growth inhibition [Asc]
Conditions: for IC50: curve of first compound; for viability, T/C: stronger effect = lower value; active means viability on the fitted dose curve at most 10% of control; inactive means the rest
Outline: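 Complex solid-tumor spheroids incorporating human endothelial and mesenchymal stem cells received single agents or combinations over half-log dilution ranges anchored to clinical Cmax.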

[1] = second compound 0.01 µM, first compound 0.00316 µM
[2] = second compound 0.01 µM, first compound 0.01 µM
[3] = second compound 0.01 µM, first compound 0.0316 µM
[4] = second compound 0.01 µM, first compound 0.1 µM
[5] = second compound 0.01 µM, first compound 0.316 µM
[6] = second compound 0.01 µM, first compound 1 µM
[7] = second compound 0.0316 µM, first compound 0.00316 µM
[8] = second compound 0.0316 µM, first compound 0.01 µM
[9] = second compound 0.0316 µM, first compound 0.0316 µM
[10] = second compound 0.0316 µM, first compound 0.1 µM
[11] = second compound 0.0316 µM, first compound 0.316 µM
[12] = second compound 0.0316 µM, first compound 1 µM
[13] = second compound 0.1 µM, first compound 0.00316 µM
[14] = second compound 0.1 µM, first compound 0.01 µM
[15] = second compound 0.1 µM, first compound 0.0316 µM
[16] = second compound 0.1 µM, first compound 0.1 µM
[17] = second compound 0.1 µM, first compound 0.316 µM
[18] = second compound 0.1 µM, first compound 1 µM
[19] = second compound 0.316 µM, first compound 0.00316 µM
[20] = second compound 0.316 µM, first compound 0.01 µM
[21] = second compound 0.316 µM, first compound 0.0316 µM
[22] = second compound 0.316 µM, first compound 0.1 µM
[23] = second compound 0.316 µM, first compound 0.316 µM
[24] = second compound 0.316 µM, first compound 1 µM
[25] = second compound 1 µM, first compound 0.00316 µM
[26] = second compound 1 µM, first compound 0.01 µM
[27] = second compound 1 µM, first compound 0.0316 µM
[28] = second compound 1 µM, first compound 0.1 µM
[29] = second compound 1 µM, first compound 0.316 µM
[30] = second compound 1 µM, first compound 1 µM
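Further: spheroids exposed to agents for 7 days before readout.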
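Wherever viability, T/C is given: 100% = DMSO vehicle control viability.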

CCN1CCN(Cc2ccc(Nc3ncc(F)c(-c4cc(F)c5nc(C)n(C(C)C)c5c4)n3)nc2)CC1 + CNC(C)C(=O)NC1CN(S(=O)(=O)c2cccc(S(=O)(=O)N3CCC4CCC(C(=O)NC(c5ccccc5)c5ccccc5)N4C(=O)C(NC(=O)C(C)NC)C3)c2)CCC2CCC(C(=O)NC(c3ccccc3)c3ccccc3)N2C1=O
> 1000 nM: IC50 (second compound 0.01 µM) | IC50 (second compound 0.0316 µM) | IC50 (second compound 0.1 µM) | IC50 (second compound 0.316 µM) | IC50 (second compound 1 µM)
inactive: viability, T/C [1] 89.3% | viability, T/C [2] 85.6% | viability, T/C [3] 71.2% | viability, T/C [4] 61.6% | viability, T/C [5] 73.2% | viability, T/C [6] 94.8% | viability, T/C [7] 87.8% | viability, T/C [8] 106% | viability, T/C [9] 82.5% | viability, T/C [10] 84.1% | viability, T/C [11] 83.6% | viability, T/C [12] 102% | viability, T/C [13] 97.6% | viability, T/C [14] 91.7% | viability, T/C [15] 76.6% | viability, T/C [16] 76.9% | viability, T/C [17] 86.7% | viability, T/C [18] 96.8% | viability, T/C [19] 76.3% | viability, T/C [20] 76.8% | viability, T/C [21] 83.5% | viability, T/C [22] 66.6% | viability, T/C [23] 69.7% | viability, T/C [24] 105% | viability, T/C [25] 95.5% | viability, T/C [26] 85.1% | viability, T/C [27] 64.8% | viability, T/C [28] 57.7% | viability, T/C [29] 69.9% | viability, T/C [30] 103%

NC(=O)C(=Cn1cnc(-c2cc(C(F)(F)F)cc(C(F)(F)F)c2)n1)c1cncnc1 + CNC(C)C(=O)NC1CN(S(=O)(=O)c2cccc(S(=O)(=O)N3CCC4CCC(C(=O)NC(c5ccccc5)c5ccccc5)N4C(=O)C(NC(=O)C(C)NC)C3)c2)CCC2CCC(C(=O)NC(c3ccccc3)c3ccccc3)N2C1=O
23.4 nM: IC50 (second compound 0.316 µM)
8.62 nM: IC50 (second compound 0.0316 µM)
inactive: viability, T/C (second compound 0.01 µM, first compound 0.000949 µM) 96.9% | viability, T/C (second compound 0.01 µM, first compound 0.003 µM) 60.7% | viability, T/C (second compound 0.01 µM, first compound 0.00949 µM) 39% | viability, T/C (second compound 0.01 µM, first compound 0.03 µM) 43% | viability, T/C (second compound 0.01 µM, first compound 0.0949 µM) 37.4% | viability, T/C (second compound 0.01 µM, first compound 0.3 µM) 34.8% | viability, T/C (second compound 0.0316 µM, first compound 0.000949 µM) 84.4% | viability, T/C (second compound 0.0316 µM, first compound 0.003 µM) 91.9% | viability, T/C (second compound 0.0316 µM, first compound 0.00949 µM) 46.5% | viability, T/C (second compound 0.0316 µM, first compound 0.03 µM) 36.5% | viability, T/C (second compound 0.0316 µM, first compound 0.0949 µM) 34.8% | viability, T/C (second compound 0.0316 µM, first compound 0.3 µM) 27.4% | viability, T/C (second compound 0.1 µM, first compound 0.000949 µM) 97.8% | viability, T/C (second compound 0.1 µM, first compound 0.003 µM) 77.9% | viability, T/C (second compound 0.1 µM, first compound 0.00949 µM) 72.9% | viability, T/C (second compound 0.1 µM, first compound 0.03 µM) 52.6% | viability, T/C (second compound 0.1 µM, first compound 0.0949 µM) 42.6% | viability, T/C (second compound 0.1 µM, first compound 0.3 µM) 27.1% | viability, T/C (second compound 0.316 µM, first compound 0.000949 µM) 86.2% | viability, T/C (second compound 0.316 µM, first compound 0.003 µM) 76% | viability, T/C (second compound 0.316 µM, first compound 0.00949 µM) 39.8% | viability, T/C (second compound 0.316 µM, first compound 0.03 µM) 61.5% | viability, T/C (second compound 0.316 µM, first compound 0.0949 µM) 40.7% | viability, T/C (second compound 0.316 µM, first compound 0.3 µM) 25.9% | viability, T/C (second compound 1 µM, first compound 0.000949 µM) 108% | viability, T/C (second compound 1 µM, first compound 0.003 µM) 89.7% | viability, T/C (second compound 1 µM, first compound 0.00949 µM) 77.2% | viability, T/C (second compound 1 µM, first compound 0.03 µM) 58.6% | viability, T/C (second compound 1 µM, first compound 0.0949 µM) 36.1% | viability, T/C (second compound 1 µM, first compound 0.3 µM) 32.3%
5.34 nM: IC50 (second compound 0.01 µM)
44.6 nM: IC50 (second compound 0.1 µM)
47.4 nM: IC50 (second compound 1 µM)

O=C(c1ccc(F)c(F)c1Nc1ccc(I)cc1F)N1CC(O)([C@@H]2CCCCN2)C1 + CNC(C)C(=O)NC1CN(S(=O)(=O)c2cccc(S(=O)(=O)N3CCC4CCC(C(=O)NC(c5ccccc5)c5ccccc5)N4C(=O)C(NC(=O)C(C)NC)C3)c2)CCC2CCC(C(=O)NC(c3ccccc3)c3ccccc3)N2C1=O
15.8 nM: IC50 (second compound 1 µM)
14.5 nM: IC50 (second compound 0.1 µM)
26.6 nM: IC50 (second compound 0.316 µM)
15.7 nM: IC50 (second compound 0.01 µM)
18.4 nM: IC50 (second compound 0.0316 µM)
inactive: viability, T/C [1] 61.2% | viability, T/C [2] 57.2% | viability, T/C [3] 38.5% | viability, T/C [4] 35.7% | viability, T/C [5] 17.7% | viability, T/C [6] 20.2% | viability, T/C [7] 76.8% | viability, T/C [8] 56.4% | viability, T/C [9] 46.5% | viability, T/C [10] 26.9% | viability, T/C [11] 25.5% | viability, T/C [12] 18.8% | viability, T/C [13] 66.4% | viability, T/C [14] 44.7% | viability, T/C [15] 53.5% | viability, T/C [16] 29.4% | viability, T/C [17] 19.7% | viability, T/C [18] 20.8% | viability, T/C [19] 61.6% | viability, T/C [20] 60.3% | viability, T/C [21] 48% | viability, T/C [22] 28% | viability, T/C [23] 18.9% | viability, T/C [24] 18.3% | viability, T/C [25] 67.1% | viability, T/C [26] 53.4% | viability, T/C [27] 43.5% | viability, T/C [28] 28.2% | viability, T/C [29] 17.4% | viability, T/C [30] 17.3%
